From ChEMBL document CHEMBL1240377, “Comparison of anidulafungin MICs determined by the clinical and laboratory standards institute broth microdilution method (M27-A3 document) and Etest for Candida species isolates” (2010)
In brackets after ≈: the same amount, converted by molar mass. *1 amine or outer side, *2 acyl side, *3 side chain or, on linkers, in order; H or OH if unused. Where a SMILES comes first, the peptide text is derived from it. Bridges are numbered along the chain shown (N, C = ends). [ ]: non-standard residue; d: D form. The star is where a group is joined. hTyr(3S-OH,4S-OH,3'-OSO3H) = N[C@H](C(=O)O)[C@H](O)[C@@H](O)c1ccc(O)c(OS(=O)(=O)O)c1; pTerphenylCO(4''-OnC5H11) = CCCCCOc1ccc(-c2ccc(-c3ccc(C(=O)*)cc3)cc2)cc1; Orn(4R-OH,5R-OH) = O=C([C@H](C[C@@H](O)[C@@H](O)N[*:3])N[*:1])[*:2]; hTyr(3S-OH,4S-OH) = N[C@H](C(=O)O)[C@H](O)[C@@H](O)c1ccc(O)cc1; Pro(3S-OH,4S-Me) = C[C@H]1CN[C@H](C(=O)O)[C@H]1O; X1 = CCCCCOc1ccc(-c2cc(-c3ccc(C(=O)*)cc3)no2)cc1; Gln(3R-OH) = NC(=O)C[C@@H](O)[C@H](N)C(=O)O; Hyp = O=C(O)[C@@H]1C[C@@H](O)CN1

Legend:
Format in all cases: functional
Candida albicans [1] = assay: Antimicrobial activity against caspofungin-resistant Candida albicans T25 by Etest
Pichia kudriavzevii [2] = assay: Antimicrobial activity against Issatchenkia orientalis after 24 hrs by CLSI M27-A3 broth microdilution method
Nakaseomyces glabratus [3] = assay: Antimicrobial activity against Candida glabrata after 24 hrs by CLSI M27-A3 broth microdilution method
Debaryomyces hansenii [4] = assay: Antimicrobial activity against Candida famata after 24 hrs by Etest
Candida albicans [5] = assay: Antimicrobial activity against caspofungin-resistant Candida albicans T26 by CLSI M27-A3 broth microdilution method
Clavispora lusitaniae [6] = assay: Antimicrobial activity against Clavispora lusitaniae ATCC 42720 after 24 hrs by Etest; conditions: ATCC 42720, 24 h
Candida albicans [7] = assay: Antimicrobial activity against caspofungin-resistant Candida albicans NR2 expressing heterozygous […] mutant gene by Etest
Candida albicans [8] = assay: Antimicrobial activity against caspofungin-resistant Candida albicans T32 by Etest
Candida albicans [9] = assay: Antimicrobial activity against caspofungin-resistant Candida albicans NR3 expressing homozygous […] mutant gene by CLSI M27-A3 broth microdilution method
Pichia kudriavzevii [10] = assay: Antimicrobial activity against Issatchenkia orientalis after 24 hrs by Etest
Candida tropicalis [11] = assay: Antimicrobial activity against Candida tropicalis after 24 hrs by CLSI M27-A3 broth microdilution method
Candida albicans [12] = assay: Antimicrobial activity against caspofungin-resistant Candida albicans CAI4 by CLSI M27-A3 broth microdilution method
Candida parapsilosis [13] = assay: Antimicrobial activity against Candida parapsilosis after 24 hrs by CLSI M27-A3 broth microdilution method; conditions: Lodderomyces parapsilosis
Debaryomyces hansenii [14] = assay: Antimicrobial activity against Candida famata after 24 hrs by CLSI M27-A3 broth microdilution method
Pichia kudriavzevii [15] = assay: Antimicrobial activity against caspofungin-susceptible Issatchenkia orientalis CY-118 CLSI by M27-A3 broth microdilution method
Candida albicans [16] = assay: Antimicrobial activity against caspofungin-resistant Candida albicans T32 by CLSI M27-A3 broth microdilution method
Candida albicans [17] = assay: Antimicrobial activity against caspofungin-resistant Candida albicans T25 by CLSI M27-A3 broth microdilution method
Candida albicans [18] = assay: Antimicrobial activity against Candida albicans after 24 hrs CLSI M27-A3 broth microdilution method
Candida tropicalis [19] = assay: Antimicrobial activity against Candida tropicalis after 24 hrs by Etest
Candida parapsilosis [20] = assay: Antimicrobial activity against Candida parapsilosis after 24 hrs by Etest; conditions: Lodderomyces parapsilosis
Candida albicans [21] = assay: Antimicrobial activity against caspofungin-resistant Candida albicans CAI4R1 expressing heterozygous […] mutant gene by CLSI M27-A3 broth microdilution method
Candida albicans [22] = assay: Antimicrobial activity against caspofungin-resistant Candida albicans NR2 expressing heterozygous […] mutant gene by CLSI M27-A3 broth microdilution method
Candida albicans [23] = assay: Antimicrobial activity against caspofungin-resistant Candida albicans T26 by Etest
[24] = system: Meyerozyma guilliermondii; assay: Antimicrobial activity against Pichia guilliermondii ATCC 6260 after 24 hrs by Etest; conditions: ATCC 6260, 24 h
Candida albicans [25] = assay: Antimicrobial activity against caspofungin-resistant Candida albicans NR3 expressing homozygous […] mutant gene by Etest
Pichia kudriavzevii [26] = assay: Antimicrobial activity against caspofungin-susceptible Candida krusei CY-118 by Etest
Candida albicans [27] = assay: Antimicrobial activity against caspofungin-resistant Candida albicans NR4 expressing heterozygous […] mutant gene by CLSI M27-A3 broth microdilution method
[28] = system: Meyerozyma guilliermondii; assay: Antimicrobial activity against Pichia guilliermondii ATCC 6260 after 24 hrs by CLSI M27-A3 broth microdilution method; conditions: ATCC 6260, 24 h
Candida albicans [29] = assay: Antimicrobial activity against caspofungin-resistant Candida albicans CAI4R1 expressing heterozygous […] mutant gene by Etest
Candida albicans [30] = assay: Antimicrobial activity against caspofungin-resistant Candida albicans CAI4 by Etest
Clavispora lusitaniae [31] = assay: Antimicrobial activity against Clavispora lusitaniae ATCC 42720 after 24 hrs by CLSI M27-A3 broth microdilution method; conditions: ATCC 42720, 24 h
Candida albicans [32] = assay: Antimicrobial activity against caspofungin-resistant Candida albicans NR4 expressing heterozygous […] mutant gene by Etest
Candida albicans [33] = assay: Antimicrobial activity against Candida albicans after 24 hrs by Etest
Nakaseomyces glabratus [34] = assay: Antimicrobial activity against Candida glabrata after 24 hrs by Etest

CCCCCOc1ccc(-c2ccc(-c3ccc(C(=O)N[C@H]4C[C@@H](O)[C@@H](O)NC(=O)[C@@H]5[C@@H](O)[C@@H](C)CN5C(=O)[C@H]([C@@H](C)O)NC(=O)[C@H]([C@H](O)[C@@H](O)c5ccc(O)cc5)NC(=O)[C@@H]5C[C@@H](O)CN5C(=O)[C@H]([C@@H](C)O)NC4=O)cc3)cc2)cc1 [ANIDULAFUNGIN] ({pTerphenylCO(4''-OnC5H11)}-[Orn(4R-OH,5R-OH)]T[Hyp][hTyr(3S-OH,4S-OH)]T[Pro(3S-OH,4S-Me)]; lactam 1-C)
MIC (Candida albicans [1]): 2 µg/mL (≈ 1.75 µM)
MIC50 (Pichia kudriavzevii [2]): 0.03 µg/mL (≈ 0.0263 µM)
MIC90 (Pichia kudriavzevii [2]): 0.12 µg/mL (≈ 0.105 µM)
MIC50 (Nakaseomyces glabratus [3]): 0.03 µg/mL (≈ 0.0263 µM)
MIC90 (Nakaseomyces glabratus [3]): 0.12 µg/mL (≈ 0.105 µM)
MIC (Debaryomyces hansenii [4]): 0.06 µg/mL (≈ 0.0526 µM)
MIC50 (Debaryomyces hansenii [4]): 0.06 µg/mL (≈ 0.0526 µM)
MIC (Candida albicans [5]): 1 µg/mL (≈ 0.877 µM)
MIC (Clavispora lusitaniae [6]): 0.06 µg/mL (≈ 0.0526 µM)
MIC50 (Clavispora lusitaniae [6]): 0.06 µg/mL (≈ 0.0526 µM)
MIC (Candida albicans [7]): 1 µg/mL (≈ 0.877 µM)
MIC (Candida albicans [8]): ≤ 0.032 µg/mL
MIC (Candida albicans [9]): 1 µg/mL (≈ 0.877 µM)
MIC50 (Pichia kudriavzevii [10]): 0.03 µg/mL (≈ 0.0263 µM)
MIC90 (Pichia kudriavzevii [10]): 0.5 µg/mL (≈ 0.438 µM)
MIC (Candida tropicalis [11]): ≤ 0.016 µg/mL
MIC (Candida albicans [12]): ≤ 0.032 µg/mL
MIC50 (Candida parapsilosis [13]): 0.5 µg/mL (≈ 0.438 µM)
MIC90 (Candida parapsilosis [13]): 4 µg/mL (≈ 3.51 µM)
MIC (Debaryomyces hansenii [14]): 0.03 µg/mL (≈ 0.0263 µM)
MIC50 (Debaryomyces hansenii [14]): 0.03 µg/mL (≈ 0.0263 µM)
MIC (Pichia kudriavzevii [15]): 0.5 µg/mL (≈ 0.438 µM)
MIC (Candida albicans [16]): 0.032 µg/mL (≈ 0.0281 µM)
MIC (Candida albicans [17]): 1 µg/mL (≈ 0.877 µM)
MIC50 (Candida albicans [18]): 0.016 µg/mL (≈ 0.014 µM)
MIC90 (Candida albicans [18]): 0.25 µg/mL (≈ 0.219 µM)
MIC (Candida tropicalis [19]): ≤ 0.016 µg/mL
MIC50 (Candida parapsilosis [20]): 2 µg/mL (≈ 1.75 µM)
MIC90 (Candida parapsilosis [20]): 8 µg/mL (≈ 7.02 µM)
MIC (Candida albicans [21]): 0.5 µg/mL (≈ 0.438 µM)
MIC (Candida albicans [22]): 0.12 µg/mL (≈ 0.105 µM)
MIC (Candida albicans [23]): 0.5 µg/mL (≈ 0.438 µM)
MIC50 [24]: 1 µg/mL (≈ 0.877 µM)
MIC90 [24]: 8 µg/mL (≈ 7.02 µM)
MIC (Candida albicans [25]): 32 µg/mL (≈ 28.1 µM)
MIC (Pichia kudriavzevii [26]): ≤ 0.032 µg/mL
MIC (Candida albicans [27]): 0.25 µg/mL (≈ 0.219 µM)
MIC50 [28]: 1 µg/mL (≈ 0.877 µM)
MIC90 [28]: 1 µg/mL (≈ 0.877 µM)
MIC (Candida albicans [29]): 2 µg/mL (≈ 1.75 µM)
MIC (Candida albicans [30]): ≤ 0.032 µg/mL
MIC (Clavispora lusitaniae [31]): 0.03 µg/mL (≈ 0.0263 µM)
MIC50 (Clavispora lusitaniae [31]): 0.03 µg/mL (≈ 0.0263 µM)
MIC (Candida albicans [32]): 0.5 µg/mL (≈ 0.438 µM)
MIC50 (Candida albicans [33]): 0.016 µg/mL (≈ 0.014 µM)
MIC90 (Candida albicans [33]): 1 µg/mL (≈ 0.877 µM)
MIC50 (Nakaseomyces glabratus [34]): 0.016 µg/mL (≈ 0.014 µM)
MIC90 (Nakaseomyces glabratus [34]): 0.016 µg/mL (≈ 0.014 µM)

CC[C@H](C)C[C@H](C)CCCCCCCCC(=O)N[C@H]1C[C@@H](O)[C@@H](NCCN)NC(=O)[C@@H]2[C@@H](O)CCN2C(=O)[C@H]([C@H](O)CCN)NC(=O)[C@H]([C@H](O)[C@@H](O)c2ccc(O)cc2)NC(=O)[C@@H]2C[C@@H](O)CN2C(=O)[C@H]([C@@H](C)O)NC1=O [CASPOFUNGIN]
MIC (Candida albicans [5]): 8 µg/mL (≈ 7.32 µM)
MIC (Candida albicans [9]): 8 µg/mL (≈ 7.32 µM)
MIC (Candida albicans [12]): ≤ 0.032 µg/mL
MIC (Pichia kudriavzevii [15]): 4 µg/mL (≈ 3.66 µM)
MIC (Candida albicans [16]): 0.25 µg/mL (≈ 0.229 µM)
MIC (Candida albicans [17]): 8 µg/mL (≈ 7.32 µM)
MIC (Candida albicans [21]): 4 µg/mL (≈ 3.66 µM)
MIC (Candida albicans [22]): 4 µg/mL (≈ 3.66 µM)
MIC (Candida albicans [27]): 2 µg/mL (≈ 1.83 µM)

CCCCCOc1ccc(-c2cc(-c3ccc(C(=O)N[C@H]4C[C@@H](O)[C@@H](O)NC(=O)[C@@H]5[C@@H](O)[C@@H](C)CN5C(=O)[C@H]([C@H](O)CC(N)=O)NC(=O)[C@H]([C@H](O)[C@@H](O)c5ccc(O)c(OS(=O)(=O)O)c5)NC(=O)[C@@H]5C[C@@H](O)CN5C(=O)[C@H]([C@@H](C)O)NC4=O)cc3)no2)cc1 [MICAFUNGIN] (X1-[Orn(4R-OH,5R-OH)]T[Hyp][hTyr(3S-OH,4S-OH,3'-OSO3H)][Gln(3R-OH)][Pro(3S-OH,4S-Me)]; lactam 1-C)
MIC (Candida albicans [5]): 1 µg/mL (≈ 0.787 µM)
MIC (Candida albicans [9]): 1 µg/mL (≈ 0.787 µM)
MIC (Candida albicans [12]): ≤ 0.032 µg/mL
MIC (Pichia kudriavzevii [15]): 1 µg/mL (≈ 0.787 µM)
MIC (Candida albicans [16]): ≤ 0.032 µg/mL
MIC (Candida albicans [17]): 1 µg/mL (≈ 0.787 µM)
MIC (Candida albicans [21]): 0.25 µg/mL (≈ 0.197 µM)
MIC (Candida albicans [22]): 0.25 µg/mL (≈ 0.197 µM)
MIC (Candida albicans [27]): 0.25 µg/mL (≈ 0.197 µM)
